Source: ChEMBL document CHEMBL3045836, “Synthesis characterization and biological evaluation of some alkoxyphthalimide derivatives of 3-(4-substituted phenyl)-6,6-diphenyl-3,3a-dihydro-2H-imidazo[2,1-b]pyrazolo[3,4-d][1,3]thiazol-7(6H)-one” (2011)

Legend:
Type in all cases: functional
Conditions in all cases: read-out: IZ
Escherichia coli = test: Antibacterial activity against Escherichia coli at 500 ppm
Pseudomonas aeruginosa = test: Antibacterial activity against Pseudomonas aeruginosa at 500 ppm
Aspergillus fumigatus = test: Antifungal activity against Aspergillus fumigatus at 500 ppm
Proteus mirabilis = test: Antibacterial activity against Proteus mirabilis at 500 ppm
Bacillus subtilis = test: Antibacterial activity against Bacillus subtilis at 500 ppm
Candida albicans = test: Antifungal activity against Candida albicans at 500 ppm

Row | SMILES | zone of inhibition at 500 ppm (Escherichia coli) [mm] | zone of inhibition at 500 ppm (Pseudomonas aeruginosa) [mm] | zone of inhibition at 500 ppm (Aspergillus fumigatus) [mm] | zone of inhibition at 500 ppm (Proteus mirabilis) [mm] | zone of inhibition at 500 ppm (Bacillus subtilis) [mm] | zone of inhibition at 500 ppm (Candida albicans) [mm]
1 | O=C1c2ccccc2C(=O)N1OCCN1N=C2C(SC3=NC(c4ccccc4)(c4ccccc4)C(=O)N32)C1c1ccc(Cl)cc1 (stereo unspecified) | 11 | 9 | 6 | 5 | 4 | 20
2 | O=C1c2ccccc2C(=O)N1OCCN1N=C2C(SC3=NC(c4ccccc4)(c4ccccc4)C(=O)N32)C1c1ccccc1 (stereo unspecified) | 12 | 14 | 4 | 3 | 9 | 19
3 | O=C1c2ccccc2C(=O)N1OCCN1N=C2C(SC3=NC(c4ccccc4)(c4ccccc4)C(=O)N32)C1c1ccc(F)cc1 (stereo unspecified) | 12 | 11 | 5 | 8 | 6 | 20
4 | COc1ccc(C2C3SC4=NC(c5ccccc5)(c5ccccc5)C(=O)N4C3=NN2CCON2C(=O)c3ccccc3C2=O)cc1 (stereo unspecified) | 9 | 17 | 3 | 6 | 11 | 18
5 | CN(C)c1ccc(C2C3SC4=NC(c5ccccc5)(c5ccccc5)C(=O)N4C3=NN2CCON2C(=O)c3ccccc3C2=O)cc1 (stereo unspecified) | 10 | 10 | 2 | 5 | 7 | 17
6 | O=C1c2ccccc2C(=O)N1OCCNc1nc(-c2ccc(Cl)cc2)c2c(n1)N1C(=O)C(c3ccccc3)(c3ccccc3)N=C1S2 | 13 | 13 | 6 | 4 | 5 | 11
7 | O=C1c2ccccc2C(=O)N1OCCNc1nc(-c2ccccc2)c2c(n1)N1C(=O)C(c3ccccc3)(c3ccccc3)N=C1S2 | 18 | 14 | 2 | 10 | 7 | 26
8 | O=C1c2ccccc2C(=O)N1OCCNc1nc(-c2ccc(F)cc2)c2c(n1)N1C(=O)C(c3ccccc3)(c3ccccc3)N=C1S2 | 13 | 21 | 4 | 8 | 13 | 23
9 | COc1ccc(-c2nc(NCCON3C(=O)c4ccccc4C3=O)nc3c2SC2=NC(c4ccccc4)(c4ccccc4)C(=O)N23)cc1 | 11 | 12 | 5 | 6 | 12 | 21
10 | CN(C)c1ccc(-c2nc(NCCON3C(=O)c4ccccc4C3=O)nc3c2SC2=NC(c4ccccc4)(c4ccccc4)C(=O)N23)cc1 | 15 | 11 | 8 | 7 | 10 | 19
11 | C[C@@H]1[C@H](O)[C@@H](C)/C=C/C=C/C=C/C=C/C=C/C=C/C=C/[C@H](O[C@@H]2O[C@H](C)[C@@H](O)[C@H](N)[C@@H]2O)C[C@@H]2O[C@](O)(C[C@@H](O)C[C@@H](O)[C@H](O)CC[C@@H](O)C[C@@H](O)CC(=O)O[C@H]1C)C[C@H](O)[C@H]2C(=O)O [AMPHOTERICIN B] |  |  | 10 |  |  | 17
12 | O=C(O)c1cn(C2CC2)c2cc(N3CCNCC3)c(F)cc2c1=O [CIPROFLOXACIN] | 16 | 18 |  | 16 | 17 | 
